In patent US20240304334A1, “CLOTTABILITY-BASED PERSONALIZED TREATMENT (CPT) SYSTEM” (priority 2021, published 2024):
Where “and” joins values, the source holds several entries; their conditions need not be identical. Equal values may be shown once.

Legend:
AECOPD patients [1] = assay: Blood gas analysis in AECOPD patients; assay type: in vivo, human; conditions: for PCO2 / SO2: AECOPD
From the text: (§1) This is again another example how anticoagulant treatment reduces pathological in vivo thrombin generation with the concomitant reduction of fibrin-derivatives detectable by CCT. This example is a highly prevalent (>10%) progressive chronic disease, which has strong clinical manifestations of immune and coagulation systems. Chronic obstructive pulmonary disease (COPD) is an inflammatory lung disease that affects respiratory function with concomitant high thrombosis risk. In this example, study subjects were the 70 patients diagnosed with COPD and developed acute exacerbation form of COPD (AECOPD). On top of the standard AECOPD treatments e.g. anti-infection, bronchodilation, phlegm elimination, and oxygen treatment, etc, 32 of these AECOPD patients received no additional treatment and the other 38 of them were treated with low molecular weight heparin calcium (LMWH, 4100 IU anti-FXa/injection every 12 hrs, for 10 days).
(§2) Treatment efficacy was evaluated based on several parameters: pulmonary function, blood gas analysis and coagulation parameters. All this information were obtained before and after the LMWH anticoagulant treatment, the same for the control group. The pulmonary function was measured with several methods, such as FEV1 (measurement of forced expiratory volume in 1 sec after bronchodilator was inhaled) and FVC (forced vital capacity, and the ratio of FEV/FVC in % as clinical signs of respiratory performance). Blood gas analysis was obtained by measuring oxygen saturation of blood (SO2), partial pressure of oxygen (PO2) and partial pressure of carbon dioxide (PCO2). Several blood coagulation parameters were measured; they are CCT, DD, PT-INR.

AECOPD patients [2] = assay: Pulmonary function in AECOPD patients; assay type: in vivo, human
From the text: as §1, §2

[3] = tested on: fibrinogen and fibrin-derivatives; assay: CCT in AECOPD patients; assay type: in vivo, human
From the text: as §1
(§3) Treatment efficacy was evaluated based on several parameters: pulmonary function, blood gas analysis and coagulation parameters. […] The pulmonary function was measured with several methods, such as FEV1 (measurement of forced expiratory volume in 1 sec after bronchodilator was inhaled) and FVC (forced vital capacity, and the ratio of FEV/FVC in % as clinical signs of respiratory performance). […] Several blood coagulation parameters were measured; they are CCT, DD, PT-INR.

D-dimer = assay: DD in AECOPD patients; assay type: in vivo, human
From the text: as §1, §3

coagulation system = assay: PT and INR in AECOPD patients; assay type: in vivo, human
From the text: as §1, §2

coagulation pathway = assay: Clottability test (CCT minus TFT) in plasma of patients on anticoagulants, clinical study C; assay type: in vivo, human; conditions: individual patient plasma, single time point, on anticoagulant
Protocol: For determination of the clottability of blood, combined clottability assays were performed using a (a) clot-based and (b) enzyme-based fibrinogen test. The information provided by the assay is whether the blood is normal-clottable, hyperclottable, or hypoclottable by measuring fibrinogen concentration in blood plasma.
To estimate the clotting dynamics, […]. Thus, clottability is determined by […] (clottability=CCT−TFT). Exemplary, high values after subtraction of the obtained concentrations of the tests indicate high amounts of pro-coagulable factors and thus increased thrombin activity. Therefore, the greater the in vivo thrombin activation, the higher the obtained values from the clottability test. This leads to the finding that high values relate to an increased clottability.
The skilled person is aware of how to perform the CCT test. Thus, as an example, Multifibren-U from Siemens and/or HemoslL Fibrinogen-C from IL/Werfen can be used. Moreover, it is known that the CCT test can show a higher fibrinogen concentration than the actual concentration due to enhanced clotting efficiency by the pro-coagulable factors due to the thrombin activity. […]

[4] = tested on: fibrinogen and fibrin-derivatives; assay: CCT before and after anticoagulant in healthy volunteers; assay type: in vivo, human; conditions: 6 healthy volunteers; for CCT average after treatment: 3 hrs after last intake, rivaroxaban 15 mg twice daily 2.5 days, apixaban 10 mg twice daily 3.5 days; for CCT average before treatment: just before anticoagulant intake; for difference in CCT after vs before treatment: not statistical significant
Protocol: The skilled person is aware of how to perform the CCT test. Thus, as an example, Multifibren-U from Siemens and/or HemoslL Fibrinogen-C from IL/Werfen can be used. Moreover, it is known that the CCT test can show a higher fibrinogen concentration than the actual concentration due to enhanced clotting efficiency by the pro-coagulable factors due to the thrombin activity. […] In such study, rivaroxaban study was performed on 6 healthy volunteers, with ages between 18-50 years. They fulfilled the criteria of normal vital signs and lab screening tests for infection, hematology and coagulation, and had no abnormalities at physical examination. They were given 15 mg rivaroxaban twice daily for 2.5 days. The dosage of twice-daily 15 mg was chosen as it is the highest approved dosage for the initial treatment of acute venous thromboembolism (VTE). The apixaban study was performed on another 6 healthy volunteers, with the same health profile requirements as rivaroxaban study. These 6 volunteers were given 10 mg apixaban twice daily for 3.5 days. Blood samples were drawn just before anticoagulants intake and 3 hrs after the last intake. Measurement of fibrinogen was in duplicate.

[5] = tested on: patients with acute cerebral infarction (ACI); assay: Neurological assessment (NIHSS) in acute cerebral infarction patients; assay type: in vivo, human; conditions: ACI patients n=35, 2 weeks, plus aspirin 100 mg/day
Protocol: (§4) Seventy patients who had complete clinical record and were diagnosed with acute cerebral infarction (ACI), either validated by CT or MRI, were included into this study. They have to be the first time patients of ACI and the disease onset should be shorter than 72 hours, and the cause of the cerebral infarction was cardiac origin, and they were without abnormal renal function, without bleeding history and hemostatic abnormality. These 70 patients were divided into 2 groups, 35 in control group and the other 35 in observational group. The control group patients were treated with rivaroxaban (anticoagulant), while observational group patients were treated combined rivaroxaban and sodium ozagrel (anti-platelet). Sodium ozagrel inhibits platelet activation and aggregation through specific inhibition of thromboxane (TX) synthetase. Due to the inhibitory effect of ozagrel on platelet activation, platelets cease to become the main lipid surface of thrombin generation. Beside standard treatment such as enriched oxygen supply, etc, all 70 patients were treated with aspirin 100 mg/tablet/day. Additionally, the control and observational groups were given rivaroxaban 15 mg/tablet/day. On top of rivaroxaban, the observational group received intravenously and daily 80 mg of ozagrel sodium in 500 mL glucose (5%) solution. Everyone was treated for 2 weeks. Both groups have very similar age mean and range (40-70 years). After 2 weeks of treatment, clinical efficacy (neurological assessments), coagulation lab tests (only CCT is shown) and GCS scores of the two groups were compared. Neurological […] according to NIH stroke scale (NIHSS). When NIHSS score reduces ≥90%, the disability classification is grade 0, and the treatment is highly efficacious. When NIHSS score reduces to between 46% and 89%, the disability classification is grade 1 to 3, the treatment is considered efficacious. The treatment is no efficacious, when the score is below 46%.

Fibrin(ogen) = assay: CCT in acute cerebral infarction patients; assay type: in vivo, human; conditions: ACI patients
Protocol: as §4

[6] = tested on: patients with acute cerebral infarction (ACI); assay: Glasgow coma score (GCS) in acute cerebral infarction patients; assay type: in vivo, human
Protocol: Seventy patients who had complete clinical record and were diagnosed with acute cerebral infarction (ACI), either validated by CT or MRI, were included into this study. They have to be the first time patients of ACI and the disease onset should be shorter than 72 hours, and the cause of the cerebral infarction was cardiac origin, and they were without abnormal renal function, without bleeding history and hemostatic abnormality. These 70 patients were divided into 2 groups, 35 in control group and the other 35 in observational group. The control group patients were treated with rivaroxaban (anticoagulant), while observational group patients were treated combined rivaroxaban and sodium ozagrel (anti-platelet). Sodium ozagrel inhibits platelet activation and aggregation through specific inhibition of thromboxane (TX) synthetase. Due to the inhibitory effect of ozagrel on platelet activation, platelets cease to become the main lipid surface of thrombin generation. Beside standard treatment such as enriched oxygen supply, etc, all 70 patients were treated with aspirin 100 mg/tablet/day. Additionally, the control and observational groups were given rivaroxaban 15 mg/tablet/day. On top of rivaroxaban, the observational group received intravenously and daily 80 mg of ozagrel sodium in 500 mL glucose (5%) solution. Everyone was treated for 2 weeks. Both groups have very similar age mean and range (40-70 years). The coma assessment was carried out before and after treatment on all subjects, based on Glasgow coma score (GCS) scoring system, which has 15 as full score. The degree of coma is lighter and is reflected with higher score. The recovery based on GCS is summarized in Table 4, together with CCT results.

[7] = human, in vivo
Protocol: Plasma samples from 19 patients were tested to investigate the coagulation pathway activity using the clottability test (CCT and TFT) and D-dimer test. These patients were receiving various anticoagulant drugs, such as rivaroxaban, apixaban, edoxaban, dabigatran, or argatroban, and the drug concentrations of each individual were determined. The aim of the study was to examine the activity of the coagulation pathway by means of both, the clottability test and D-dimer test in relation to the determined drug concentration in the plasma.

[8] = co-administering Rifampicin (P-glycoprotein inducer); cited from earlier work

Question: Which PO2 (AECOPD patients [1]; AECOPD patients n=38, after 10 days LMWH plus standard treatment) does the source give for “low molecular weight heparin calcium [LMWH]” here?
Answer: The PO2 was 78.4 mmHg.

Question: And the PO2 (AECOPD patients [1]; AECOPD patients n=38, before treatment)?
Answer: Its PO2 is 71.5 mmHg.

Question: And the PCO2 (AECOPD patients [1]; after treatment)?
Answer: The PCO2 was 41.9 mmHg.

Question: And the SO2 (AECOPD patients [1]; after treatment)?
Answer: The SO2 was 98.6%.

Question: And the PCO2 (AECOPD patients [1]; before treatment)?
Answer: The PCO2 was 52.2 mmHg.

Question: And the SO2 (AECOPD patients [1]; before treatment)?
Answer: The SO2 was 90.8%.

Question: And the FEV1 (AECOPD patients [2]; after treatment)?
Answer: Its FEV1 is 1.89 L.

Question: And the FEV1/FVC (AECOPD patients [2]; after treatment)?
Answer: The FEV1/FVC was 78.4%.

Question: And the FEV1 (AECOPD patients [2]; before treatment)?
Answer: Its FEV1 is 1.36 L.

Question: And the FEV1/FVC (AECOPD patients [2]; before treatment)?
Answer: The FEV1/FVC was 62.3%.

Question: And the CCT ([3]; after treatment)?
Answer: The CCT was 2.16.

Question: What about the CCT ([3]; before treatment) of the same compound?
Answer: Its CCT is 3.97.

Question: What about the DD (D-dimer; after treatment) of the same compound?
Answer: The DD was 237.4 µg/L.

Question: What about the DD (D-dimer; before treatment) of the same compound?
Answer: Its DD is 482.8 µg/L.

Question: And the INR (coagulation system; after treatment)?
Answer: The INR was 1.36.

Question: And the PT (coagulation system; after treatment)?
Answer: The PT was 13.7.

Question: What about the INR (coagulation system; before treatment) of the same compound?
Answer: Its INR is 0.87.

Question: What about the PT (coagulation system; before treatment) of the same compound?
Answer: Its PT is 9.6.

Question: What does the source list for `O=C(NC[C@H]1CN(c2ccc(N3CCOCC3=O)cc2)C(=O)O1)c1ccc(Cl)s1` [rivaroxaban]?
Answer: Clottability test (coagulation pathway): > 1.5 g/L and 1.7 g/L and -0.5 g/L and 0.6 g/L and 2 g/L; CCT average after treatment [4]: 2.64; CCT average before treatment [4]: 2.75; difference in CCT after vs before treatment [4]: −0.11; efficacious (NIHSS reduction 46% to 89%), number of patients [5]: 8; efficacious (NIHSS), share of patients [5]: (22.9%); highly efficacious (NIHSS score reduces ≥90%), number of patients [5]: 16; highly efficacious (NIHSS), share of patients [5]: (45.7%); non-efficacious (NIHSS below 46%), number of patients [5]: 11; non-efficacious (NIHSS), share of patients [5]: (31.4%); total efficacious (NIHSS), number of patients [5]: 24; total efficacious (NIHSS), share of patients [5]: 68.6%; Fibrin(ogen) CCT (Fibrin(ogen); T0 before treatment): 3.93 ± 1.49; Fibrin(ogen) CCT (Fibrin(ogen); T1 after 2 weeks of treatment): 3.15 ± 1.12; Fibrin(ogen) CCT, difference in mean (Fibrin(ogen); T1 vs T0): −0.78; GCS score ([6]; T0 before treatment): 6.8 ± 1.11; GCS score ([6]; T1 after 2 weeks of treatment): 9.07 ± 1.92; GCS score, difference in mean ([6]; T1 vs T0): 2.27

Question: Which results are given for `COc1ccc(-n2nc(C(N)=O)c3c2C(=O)N(c2ccc(N4CCCCC4=O)cc2)CC3)cc1` [apixaban]?
Answer: Clottability test (coagulation pathway): > 1.5 g/L and 2.7 g/L and 0.8 g/L and 1.8 g/L; CCT average after treatment [4]: 2.38; CCT average before treatment [4]: 2.56; difference in CCT after vs before treatment [4]: −0.18

Question: For `CC1CNc2c(cccc2S(=O)(=O)N[C@@H](CCCNC(=N)N)C(=O)N2CC[C@@H](C)C[C@@H]2C(=O)O)C1` (stereo partly drawn) [argatroban], which PK profile [7] is on record?
Answer: Its PK profile is “bottom”.

Question: Which “decrease of maximum plasma concentration of dabigatran” value [8] does the source give for `[H]/N=C(/N)c1ccc(NCc2nc3cc(C(=O)N(CCC(=O)O)c4ccccn4)ccc3n2C)cc1` [dabigatran] here?
Answer: Its value is “approximately 67%”.
